Source: ChEMBL document CHEMBL1201862, “PubChem BioAssay data set” (2004)
The source made the active and inactive calls.

Experiments:
[1] = target: Peroxisome proliferator-activated receptor gamma/Nuclear receptor coactivator 3 (Homo sapiens, UniProt P37231); assay type: functional;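 further: agonist potency for raising coactivator recruitment to the receptor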
[2] = target: Peroxisome proliferator-activated receptor gamma/Nuclear receptor coactivator 1 (Homo sapiens, UniProt P37231); assay type: functional;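 further: agonist potency as compounds enhance coactivator SRC-1 recruitment to PPARgamma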
[3] = target: Peroxisome proliferator-activated receptor gamma/Nuclear receptor coactivator 2 (Homo sapiens, UniProt P37231); assay type: functional;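 further: agonist potency for raising coactivator recruitment to the receptor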
Troponin, cardiac muscle = Troponin, cardiac muscle (Homo sapiens, UniProt P19429+P45379+P63316); assay: Fluorescence-based biochemical high throughput dose response assay for activators of the calcium sensitivity of cardiac Regulated Thin Filaments (RTF). [Related pubchem assays (depositor defined):AID493008, AID493018, AID504382, AID504383]; assay type: protein-complex assay
H9c2 = assay: cells; assay type: functional, cell-based; details: Rattus norvegicus, H9c2, Myocardium;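 further: confirmatory concentration-response retest of ultra-high-throughput screening hits for modulation of myocardial damage; cell death induced by hydrogen peroxide oxidative stress; compound pretreatment for 60 min then peroxide exposure for 2 h; potency is for protecting the cells against peroxide damage rather than for killing them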
[4] = HepG2 cell cytotoxicity, dose response, cytotoxicity control, plate reader, cherry-pick, antagonist series (AID 743416); assay type: functional, cell-based
[5] = MC4R antagonists, dose response, counter-screen for LGR2 antagonist project, cell-based, plate reader, cherry pick (AID 743444); assay type: functional;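 further: transfected HEK 293 cells stimulated with alpha-MSH peptide; potency of inhibitors of the alpha-MSH evoked signal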
[6] = A549 cell cytotoxicity, dose response, cytotoxicity control, plate reader, cherry-pick, antagonist series (AID 743412); assay type: functional, cell-based
[7] = LGR2 antagonists, dose response, cell-based, HEK293, CRE-luciferase reporter, cherry pick, set 2 (AID 743343); assay type: functional;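 further: transfected cells were stimulated with diluted bursicon conditioned medium after compound addition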
[8] = target: T1, Type-1 angiotensin II receptor (Homo sapiens, UniProt P30556); assay: AT1 receptor agonists, dose response, selectivity assay for APJ receptor agonist project, cell-based, uHTS hits (AID 488865); assay type: functional;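 further: beta-arrestin recruitment to AT1 measured by enzyme fragment complementation luminescence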
T1 sequence (P30556 whole entry): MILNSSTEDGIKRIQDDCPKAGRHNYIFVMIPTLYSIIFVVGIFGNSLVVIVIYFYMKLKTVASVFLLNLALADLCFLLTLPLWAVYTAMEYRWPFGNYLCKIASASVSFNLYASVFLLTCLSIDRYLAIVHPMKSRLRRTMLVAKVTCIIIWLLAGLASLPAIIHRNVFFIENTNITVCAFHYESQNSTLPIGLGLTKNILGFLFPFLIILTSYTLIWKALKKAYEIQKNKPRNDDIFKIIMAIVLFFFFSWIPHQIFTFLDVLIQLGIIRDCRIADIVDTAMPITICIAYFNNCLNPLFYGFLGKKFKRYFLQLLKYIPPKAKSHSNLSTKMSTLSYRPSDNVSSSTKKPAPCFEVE

cells [9] = assay type: functional, cell-based
cells [10] = assay type: functional, cell-based; remark: listed apart in the source
SUMO-activating enzyme [11] = target: T2, SUMO-activating enzyme (Homo sapiens, UniProt Q9UBT2); assay: inhibitors of in vitro SUMOylation cascade, primary screen, biochemical, HTRF, uHTS (AID 2006); assay type: protein-complex assay
[12] = target: T3, Long-chain-fatty-acid--AMP ligase FadD28 (Mycobacterium tuberculosis, UniProt P9WQ59); assay: Fluorescence polarization aasay to screen for inhibitors that compete for the binding of FadD28 to a bisubstrate Measured in Biochemical System Using Plate Reader - 2147-01_Inhibitor_Dose_CherryPick_Activity.; assay type: functional, Mycobacterium tuberculosis H37Rv
T3 sequence (P9WQ59 whole entry): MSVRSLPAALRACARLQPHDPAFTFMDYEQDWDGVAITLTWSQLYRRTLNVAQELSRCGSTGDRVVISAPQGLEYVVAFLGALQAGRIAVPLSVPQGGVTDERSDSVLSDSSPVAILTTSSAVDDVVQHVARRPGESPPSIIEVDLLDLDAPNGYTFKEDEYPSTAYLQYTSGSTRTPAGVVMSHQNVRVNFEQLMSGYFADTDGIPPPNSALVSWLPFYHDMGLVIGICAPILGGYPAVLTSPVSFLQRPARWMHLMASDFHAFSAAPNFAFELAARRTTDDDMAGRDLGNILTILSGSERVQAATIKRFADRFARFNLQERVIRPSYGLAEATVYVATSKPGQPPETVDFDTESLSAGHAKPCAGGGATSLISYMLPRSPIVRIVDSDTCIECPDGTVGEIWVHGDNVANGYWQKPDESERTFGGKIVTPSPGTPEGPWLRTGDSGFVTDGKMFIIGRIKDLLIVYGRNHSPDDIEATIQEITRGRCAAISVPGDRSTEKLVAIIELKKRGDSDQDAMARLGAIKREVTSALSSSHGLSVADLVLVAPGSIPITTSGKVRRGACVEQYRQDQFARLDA

[13] = target: Eukaryotic translation initiation factor 4E (Mus musculus, UniProt P63073); assay: eIF4E–eIF4G protein interaction inhibitors, dose response, biochemical, TR-FRET (AID 855); assay type: functional;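 further: potency for disrupting eIF4E binding to eIF4GI seen as loss of FRET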
SUMO-activating enzyme [14] = target: T2, SUMO-activating enzyme; assay: SUMOylation inhibitor hit validation, confirmation, SUMOylation inhibitor project, biochemical, AlphaScreen (AID 2018); assay type: functional
[15] = target: T4, E3 ubiquitin-protein ligase XIAP (Homo sapiens, UniProt P98170); assay: XIAP antagonists, biochemical, IAP family, fluorescence polarization (AID 1018); assay type: functional
[16] = target: T4, E3 ubiquitin-protein ligase XIAP; assay: Counter Screen using XIAP-Bir3 for Chemical Antagonists of Bir1/2 domains of IAP-family anti-apoptotic proteins. [Related pubchem assays (depositor defined):AID1018, AID1449, AID1514, AID1638, AID1749, AID1750, AID488957, AID488963]
[17] = target: G-protein coupled receptor 55 (Homo sapiens, UniProt Q9Y2T6); assay: GPR55 agonists via beta-arrestin recruitment, primary screen, imaging, U2OS cells, beta-arrestin-GFP redistribution (AID 1961); assay type: functional
Sequence of G-protein coupled receptor 55 (Q9Y2T6 whole entry): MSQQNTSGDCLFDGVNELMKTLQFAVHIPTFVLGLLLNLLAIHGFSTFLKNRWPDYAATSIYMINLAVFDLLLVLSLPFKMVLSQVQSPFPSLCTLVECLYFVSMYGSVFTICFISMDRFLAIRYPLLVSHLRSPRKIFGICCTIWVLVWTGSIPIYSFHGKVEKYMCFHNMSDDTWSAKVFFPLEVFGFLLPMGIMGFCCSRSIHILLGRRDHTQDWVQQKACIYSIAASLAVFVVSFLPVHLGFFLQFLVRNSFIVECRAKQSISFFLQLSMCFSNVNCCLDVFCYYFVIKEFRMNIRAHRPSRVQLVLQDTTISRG

T4 sequence (P98170 whole entry): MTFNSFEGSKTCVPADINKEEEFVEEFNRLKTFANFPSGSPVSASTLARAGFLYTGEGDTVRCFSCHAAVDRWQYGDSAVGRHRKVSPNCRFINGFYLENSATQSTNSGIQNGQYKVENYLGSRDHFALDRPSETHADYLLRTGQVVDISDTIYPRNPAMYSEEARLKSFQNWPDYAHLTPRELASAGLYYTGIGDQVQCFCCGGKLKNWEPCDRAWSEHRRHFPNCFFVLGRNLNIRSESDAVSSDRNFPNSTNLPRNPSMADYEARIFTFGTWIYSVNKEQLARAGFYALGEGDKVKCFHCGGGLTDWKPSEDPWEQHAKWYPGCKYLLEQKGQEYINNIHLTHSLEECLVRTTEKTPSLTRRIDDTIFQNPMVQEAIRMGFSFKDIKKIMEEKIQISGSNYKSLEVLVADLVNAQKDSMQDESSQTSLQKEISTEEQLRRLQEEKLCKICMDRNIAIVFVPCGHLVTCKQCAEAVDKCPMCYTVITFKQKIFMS
T2 sequence (Q9UBE0 whole entry): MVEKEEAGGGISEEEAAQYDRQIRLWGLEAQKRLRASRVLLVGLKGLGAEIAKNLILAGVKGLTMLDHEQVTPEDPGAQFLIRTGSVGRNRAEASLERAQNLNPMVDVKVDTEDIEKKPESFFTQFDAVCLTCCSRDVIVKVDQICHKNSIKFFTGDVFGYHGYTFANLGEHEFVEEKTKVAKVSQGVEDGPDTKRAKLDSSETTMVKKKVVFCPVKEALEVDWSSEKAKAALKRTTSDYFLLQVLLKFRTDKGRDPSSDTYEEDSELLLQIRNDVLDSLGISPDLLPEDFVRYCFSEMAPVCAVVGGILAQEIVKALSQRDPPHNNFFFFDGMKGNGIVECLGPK
T2 sequence (Q9UBT2 whole entry): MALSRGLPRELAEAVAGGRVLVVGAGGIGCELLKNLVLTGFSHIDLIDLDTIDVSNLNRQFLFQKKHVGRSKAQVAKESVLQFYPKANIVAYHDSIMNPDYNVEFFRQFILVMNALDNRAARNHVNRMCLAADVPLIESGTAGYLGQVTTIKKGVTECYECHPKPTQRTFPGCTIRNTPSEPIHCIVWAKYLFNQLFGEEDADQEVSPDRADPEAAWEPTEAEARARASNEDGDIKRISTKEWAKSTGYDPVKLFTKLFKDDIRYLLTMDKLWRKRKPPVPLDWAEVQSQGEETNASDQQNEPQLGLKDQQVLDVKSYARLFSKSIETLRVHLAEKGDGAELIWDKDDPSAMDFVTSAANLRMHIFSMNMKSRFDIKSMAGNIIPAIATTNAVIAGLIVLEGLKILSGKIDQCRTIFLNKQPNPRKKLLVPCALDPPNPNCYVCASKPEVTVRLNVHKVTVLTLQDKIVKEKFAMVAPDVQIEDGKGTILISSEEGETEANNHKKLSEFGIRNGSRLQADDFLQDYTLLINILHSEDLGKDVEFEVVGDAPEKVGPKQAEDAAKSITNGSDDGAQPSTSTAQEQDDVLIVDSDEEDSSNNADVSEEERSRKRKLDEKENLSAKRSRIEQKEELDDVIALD
Sequence of Peroxisome proliferator-activated receptor gamma/Nuclear receptor coactivator 3 (P37231 whole entry): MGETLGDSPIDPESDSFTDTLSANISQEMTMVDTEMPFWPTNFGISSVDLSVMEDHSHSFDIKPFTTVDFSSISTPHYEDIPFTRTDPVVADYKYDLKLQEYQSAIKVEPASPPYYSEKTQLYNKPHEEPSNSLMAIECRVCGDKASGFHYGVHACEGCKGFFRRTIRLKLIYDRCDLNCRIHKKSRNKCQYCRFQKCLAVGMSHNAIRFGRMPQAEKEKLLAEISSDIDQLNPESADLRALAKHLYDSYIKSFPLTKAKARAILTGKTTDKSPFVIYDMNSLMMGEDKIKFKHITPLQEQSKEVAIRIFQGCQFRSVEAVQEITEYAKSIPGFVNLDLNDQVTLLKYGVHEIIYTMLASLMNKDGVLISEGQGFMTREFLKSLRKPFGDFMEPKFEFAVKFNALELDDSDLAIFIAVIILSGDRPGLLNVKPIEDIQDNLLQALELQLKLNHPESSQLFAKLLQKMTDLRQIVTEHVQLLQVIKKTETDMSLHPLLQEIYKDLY
Sequence of Peroxisome proliferator-activated receptor gamma/Nuclear receptor coactivator 3 (Q9Y6Q9 whole entry, further chain): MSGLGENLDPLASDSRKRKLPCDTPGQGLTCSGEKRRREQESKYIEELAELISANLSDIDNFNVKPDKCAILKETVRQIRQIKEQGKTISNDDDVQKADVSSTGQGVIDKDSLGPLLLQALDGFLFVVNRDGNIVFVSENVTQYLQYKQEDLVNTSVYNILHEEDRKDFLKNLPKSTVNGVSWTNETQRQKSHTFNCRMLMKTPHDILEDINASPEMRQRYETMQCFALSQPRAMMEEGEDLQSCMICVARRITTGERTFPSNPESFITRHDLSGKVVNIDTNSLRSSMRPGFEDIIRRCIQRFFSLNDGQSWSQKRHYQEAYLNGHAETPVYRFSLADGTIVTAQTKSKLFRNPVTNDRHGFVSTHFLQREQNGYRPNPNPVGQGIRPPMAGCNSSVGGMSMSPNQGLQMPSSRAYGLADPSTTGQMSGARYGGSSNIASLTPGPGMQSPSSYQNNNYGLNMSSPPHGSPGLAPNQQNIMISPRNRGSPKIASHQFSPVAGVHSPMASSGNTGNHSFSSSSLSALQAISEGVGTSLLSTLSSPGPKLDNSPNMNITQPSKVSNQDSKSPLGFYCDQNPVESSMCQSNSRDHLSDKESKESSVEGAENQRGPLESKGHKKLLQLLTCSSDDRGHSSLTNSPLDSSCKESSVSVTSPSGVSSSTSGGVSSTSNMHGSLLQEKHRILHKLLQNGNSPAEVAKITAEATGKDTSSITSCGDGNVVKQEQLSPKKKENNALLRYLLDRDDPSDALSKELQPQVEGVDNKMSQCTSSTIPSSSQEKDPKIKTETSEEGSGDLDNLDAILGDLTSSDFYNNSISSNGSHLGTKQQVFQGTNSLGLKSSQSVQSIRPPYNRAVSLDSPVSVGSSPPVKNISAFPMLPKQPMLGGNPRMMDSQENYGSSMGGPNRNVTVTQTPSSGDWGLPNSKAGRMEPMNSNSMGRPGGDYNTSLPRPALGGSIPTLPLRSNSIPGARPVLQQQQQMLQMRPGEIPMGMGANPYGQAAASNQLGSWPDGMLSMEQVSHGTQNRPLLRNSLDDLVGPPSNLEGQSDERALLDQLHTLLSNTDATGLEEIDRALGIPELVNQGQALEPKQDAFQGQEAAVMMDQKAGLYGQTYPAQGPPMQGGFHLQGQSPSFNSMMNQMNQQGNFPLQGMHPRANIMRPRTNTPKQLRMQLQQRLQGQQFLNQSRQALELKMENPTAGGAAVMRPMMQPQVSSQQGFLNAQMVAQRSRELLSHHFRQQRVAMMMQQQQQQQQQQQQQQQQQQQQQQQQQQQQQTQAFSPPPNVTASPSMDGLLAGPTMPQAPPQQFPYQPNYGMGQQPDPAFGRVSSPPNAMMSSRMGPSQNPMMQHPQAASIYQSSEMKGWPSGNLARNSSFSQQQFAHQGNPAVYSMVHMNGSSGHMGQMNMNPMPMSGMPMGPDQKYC
Sequence of Eukaryotic translation initiation factor 4E (P63073 whole entry): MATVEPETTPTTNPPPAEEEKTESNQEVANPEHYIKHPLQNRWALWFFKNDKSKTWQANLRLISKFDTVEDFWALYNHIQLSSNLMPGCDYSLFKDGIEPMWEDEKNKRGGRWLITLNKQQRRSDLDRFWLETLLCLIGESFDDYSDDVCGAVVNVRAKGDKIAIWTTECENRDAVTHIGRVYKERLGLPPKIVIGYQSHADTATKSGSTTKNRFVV

Cn1nc(-c2ccccc2)c(C(=O)Nc2ccc(C(F)(F)F)cc2)c1Cl
EC50 [1]: > 79.4 µM (not active) | EC50 [2]: > 79.4 µM (not active) | EC50 [3]: > 79.4 µM (not active) | EC50 (Troponin, cardiac muscle): > 71.5 µM (inactive)

CC(C)C(=O)N1CCN(c2ccc(NC(=O)COc3ccccc3[N+](=O)[O-])cc2)CC1
IC50 (H9c2): > 79 µM (inactive) | AC50 [4]: 41.7 µM (active) | AC50 [5]: 20 µM (active) | AC50 [6]: > 52 µM (inactive) | AC50 [7]: 31.2 µM (active) | EC50 [8]: > 100 µM (inactive) | EC50 (cells [9]): > 350 µM (not active) | EC50 (cells [10]): > 350 µM (not active)

Cc1ccc(NC(=O)CN2C(=O)S/C(=C\c3ccc(-c4cccc(C(=O)O)c4C)o3)C2=O)cc1C
IC50 (SUMO-activating enzyme [11]): 6.48 µM (active) | AC50 [12]: 52.8 µM (active) | IC50 [13]: 27.9 µM (active) | IC50 (SUMO-activating enzyme [14]): 6.11 µM (active)

Cc1ccc(NS(=O)(=O)c2cc(C(=O)N(C)C)ccc2C)cc1C
IC50 [15]: > 100 µM (not active) | IC50 [16]: > 100 µM (inactive)

CCC(C)NC(=O)C(=O)NC1CCCC1 (stereo unspecified)
IC50 [15]: > 100 µM (not active) | IC50 [16]: > 100 µM (inactive)

Cc1cc(C)c(/C=N/NC(=O)c2nnn(-c3nonc3N)c2CN2CCC(C)CC2)c(C)c1
EC50 [17]: 8.18 µM (active)
